Experiments:
IMP-1 = IMP-1 (Serratia marcescens, UniProt P52699); assay: biochemical; type: biochemical; conditions: CCF2-FA substrate, 2 hours at 25° C; read-out: IMP-1 IC50
How it was run: (§1)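 Fluorescence assay, CCF2-FA substrate (cephalosporin core linking 7-hydroxycoumarin to fluorescein); inhibitor + MBL + substrate, 2 h, 25° C. IC50 by 4-parameter fit, semi-log plot.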

NDM-1 = NDM-1 (Klebsiella pneumoniae, UniProt C7C422); assay: biochemical; type: biochemical; conditions: CCF2-FA substrate, 2 hours at 25° C; read-out: NDM-1 IC50
Sequence of NDM-1 (C7C422 whole entry, looked up, species assumed): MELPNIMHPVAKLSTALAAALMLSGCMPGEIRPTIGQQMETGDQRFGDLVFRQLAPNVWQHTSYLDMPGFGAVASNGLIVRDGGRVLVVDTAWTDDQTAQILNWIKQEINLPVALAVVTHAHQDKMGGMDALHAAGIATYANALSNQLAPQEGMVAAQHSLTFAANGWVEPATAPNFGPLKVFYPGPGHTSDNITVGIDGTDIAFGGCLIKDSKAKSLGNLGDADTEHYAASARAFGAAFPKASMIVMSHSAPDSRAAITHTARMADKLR
How it was run: as §1

VIM-1 = VIM-1 (Pseudomonas aeruginosa (strain ATCC 15692 / DSM 22644 / CIP 104116 / JCM 14847 / LMG 12228 / 1C / PRS 101 / PAO1), UniProt A0A0F7KYQ8); assay: biochemical; conditions: CCF2-FA substrate, 2 hours at 25° C
How it was run: as §1

[1] = tested on: Escherichia coli expressing NDM-1 (CLB30005, CLB30016); type: cell-based; conditions: with imipenem 1 μg/ml, 95% inhibition of bacterial growth; for Escherichia coli MITC95: NDM-1 (CLB30016)
How it was run: (§2)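 Colonies from overnight 35 °C blood-agar cultures were suspended in saline, diluted 1:100 into 1.1× CAMHB and exposed to test compound with or without imipenem at 1 μg/ml. After 22–24 h at 35 °C, absorbance was read to find the concentration restoring imipenem susceptibility.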

[2] = tested on: Klebsiella pneumoniae expressing VIM-1 (IHMA599644); type: cell-based; conditions: with imipenem 1 μg/ml, 95% inhibition of bacterial growth; for Klebsiella pneumoniae MITC95: VIM-1 (IHMA599644)
How it was run: as §2

[3] = tested on: Serratia marcescens expressing IMP-1 (CL5741); type: cell-based; conditions: with imipenem 1 μg/ml, 95% inhibition of bacterial growth; for Serratia marcescens MITC95: IMP-1 (CL5741)
How it was run: as §2

[4] = tested on: P. aeruginosa expressing IMP-1, efflux+ (MB9798); type: cell-based, Pseudomonas aeruginosa; conditions: for P. aeruginosa expressing IMP-1, efflux+ (MB9798) MITC95: imipenem at 2 μg/mL, in the presence of a class A, C, D serine β-lactamase inhibitor closely related to relebactam; for Efflux ratio: ratio MITC95 PA_9798/MITC95 PA_9799
Source text: (§3) The strain background is Pseudomonas aeruginosa PAO1.

[5] = tested on: P. aeruginosa expressing IMP-1, efflux− (MB9799); assay: Efflux: concentration of MBL inhibitor which restores susceptibility to imipenem; type: cell-based, Pseudomonas aeruginosa; conditions: imipenem at 2 μg/mL, in the presence of a class A, C, D serine β-lactamase inhibitor closely related to relebactam
Source text: as §3

Sequence of IMP-1 (P52699 whole entry, looked up, species assumed): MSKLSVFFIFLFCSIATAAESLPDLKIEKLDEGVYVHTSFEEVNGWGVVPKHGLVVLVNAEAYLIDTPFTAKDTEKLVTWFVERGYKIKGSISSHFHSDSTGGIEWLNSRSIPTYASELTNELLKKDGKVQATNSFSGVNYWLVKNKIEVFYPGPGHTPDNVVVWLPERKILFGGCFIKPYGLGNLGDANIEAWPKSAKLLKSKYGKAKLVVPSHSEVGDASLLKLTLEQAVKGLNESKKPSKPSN

SMILES	IC50 (IMP-1) [nM]	IC50 (NDM-1) [nM]	IC50 (VIM-1) [nM]	Escherichia coli MITC95 [1] [µM]	Klebsiella pneumoniae MITC95 [2] [µM]	Serratia marcescens MITC95 [3] [µM]	P. aeruginosa expressing IMP-1, efflux+ (MB9798) MITC95 [4] [µM]	Efflux ratio [4]	P. aeruginosa expressing IMP-1, efflux− (MB9799) MITC95 [5] [µM]	Escherichia coli expressing NDM-1 (CLB30016) MITC95 [1] [µM]	Klebsiella pneumoniae expressing VIM-1 (IHMA599644) MITC95 [2] [µM]	Serratia marcescens expressing IMP-1 (CL5741) MITC95 [3] [µM]
Cc1nc2c(-c3ccc(S(=O)(=O)CCN)c(S(N)(=O)=O)c3-c3nn[nH]n3)cccc2[nH]1 [Example 331, 6-((2-aminoethyl)sulfonyl)-3-(2-methyl-1H-benzo[d]imidazol-4-yl)-2-(2H-tetrazol-5-yl) benzenesulfonamide]	0.302	0.165	0.183	3.125	6.25	1.563	1.563	1.00	1.563	–	–	–
Cl.Cl.NCCCS(=O)(=O)c1ccc(-c2cccc3[nH]c(N)nc23)c(-c2nn[nH]n2)c1S(N)(=O)=O [Example 270, 3-(2-amino-1H-benzo[d]imidazol-4-yl)-6-(3-aminopropylsulfonyl)-2-(2H-tetrazol-5-yl)benzenesulfonamide dihydrochloride]	0.625	0.143	0.228	0.125	0.8906	0.6406	0.4453	1.00	0.4453	–	–	–
NCCS(=O)(=O)c1ccc(-c2ccc3oc(N)nc3c2)c(-c2nn[nH]n2)c1S(N)(=O)=O [Example 77, 3-(2-aminobenzo[d]oxazol-5-yl)-6-(2-aminoethylsulfonyl)-2-(2H-tetrazol-5-yl)benzenesulfonamide]	1.13	1.05	0.385	–	–	–	6.25	8.00	0.7813	0.7813	1.563	1.563
NS(=O)(=O)c1c(S(=O)(=O)C2CNC2)ccc(-c2cccc(C3CCC(=O)N3)c2)c1-c1nnn[nH]1.O=C(O)C(F)(F)F (stereo not drawn) [Example 125, 3-((3′-(5-oxopyrrolidin-2-yl)-3-sulfamoyl-2-(1H-tetrazol-5-yl)-[1,1′-biphenyl]-4-yl)sulfonyl)azetidin-1-ium 2,2,2-trifluoroacetate]	5.23	4.02	2.54	–	–	–	50	16.00	3.125	6.25	6.25	6.25
NCCCS(=O)(=O)c1ccc(-c2cccc3[nH]cnc23)c(-c2nn[nH]n2)c1S(N)(=O)=O [Example 354, 6-((3-aminopropyl)sulfonyl)-3-(1H-benzo[d]imidazol-7-yl)-2-(1H-tetrazol-5-yl) benzenesulfonamide]	0.275	0.226	0.162	0.7813	1.563	0.7813	0.7813	1.00	0.7813	–	–	–
NCCS(=O)(=O)c1ccc(-c2ccnc3[nH]ccc23)c(-c2nnn[nH]2)c1S(N)(=O)=O.O=C(O)C(F)(F)F [Example 142, 2-((4-(1H-pyrrolo[2,3-b]pyridin-4-yl)-2-sulfamoyl-3-(1H-tetrazol-5-yl)phenyl)sulfonyl)ethanaminium 2,2,2-trifluoroacetate]	0.517	0.518	0.153	–	–	–	3.125	4.00	0.7813	1.563	3.125	1.563
NS(=O)(=O)c1c(S(=O)(=O)C2CNC2)ccc(-c2cccc3[nH]c(C(=O)NCC(=O)O)nc23)c1-c1nn[nH]n1 [Example 257, (4-(4-(azetidin-3-yl sulfonyl)-3-sulfamoyl-2-(2H-tetrazol-5-yl)phenyl)-1H-benzo[d]imidazole-2-carbonyl)glycine]	1.2	0.123	0.428	25	50	25	25	2.00	12.5	–	–	–
Nc1ncc(-c2ccc(S(=O)(=O)C3CNC3)c(S(N)(=O)=O)c2-c2nn[nH]n2)c2cccnc12 [Example 248, 3-(8-Amino-1,7-naphthyridin-5-yl)-6-(azetidin-3-ylsulfonyl)-2-(2H-tetrazol-5-yl)benzenesulfonamide]	2.09	0.566	0.556	3.125	3.125	1.563	6.25	4.00	1.563	–	–	–
CCOC(=O)N1CCC(S(=O)(=O)c2ccc(-c3cccc4nc(N)[nH]c34)c(-c3nn[nH]n3)c2S(N)(=O)=O)CC1 [Example 46, ethyl 4-(4-(2-amino-3H-benzo[d]imidazol-4-yl)-2-sulfamoyl-3-(2H-tetrazol-5-yl)phenylsulfonyl)piperidine-1-carboxylate]	2.15	0.445	0.378	–	–	–	200	64.00	3.125	6.25	25	25
Cc1ccc(-c2ccc(S(=O)(=O)CCN)c(S(N)(=O)=O)c2-c2nn[nH]n2)c2nc(N)sc12 [Example 80, 3-(2-amino-7-methylbenzo[d]thiazol-4-yl)-6-(2-aminoethylsulfonyl)-2-(2H-tetrazol-5-yl)benzenesulfonamide]	0.085	0.0508	0.11	–	–	–	0.7813	1.00	0.7813	1.172	1.563	0.7813
NC[C@@H](O)CS(=O)(=O)c1ccc(-c2cc(I)cc3[nH]c(N)nc23)c(-c2nn[nH]n2)c1S(N)(=O)=O [Example 379, (R)-6-((3-amino-2-hydroxypropyl)sulfonyl)-3-(2-amino-6-iodo-1H-benzo[d]imidazol-4-yl)-2-(2H-tetrazol-5-yl)benzenesulfonamide]	0.17	0.0809	0.123	0.7813	1.563	0.7813	0.3906	0.50	0.7813	–	–	–

— patent US10227331B2 (priority 2015, dated 2019)
